The values below are quoted from earlier work in US9877959B2, “Pharmaceutical composition containing palonosetron” (SAMYANG BIOPHARMACEUTICALS CORPORATION, priority 2013, dated 2018).

Molecules are shown by their SMILES. Bounds are passed on as bounds.

One may read the half-life as the time needed for the level to fall by half in the phase considered.

The conditions of series [1]: in vivo.
For a further series, the target named is T1, 5-HT3 receptor (Homo sapiens, UniProt P46098).
T1 sequence (P46098 24-478): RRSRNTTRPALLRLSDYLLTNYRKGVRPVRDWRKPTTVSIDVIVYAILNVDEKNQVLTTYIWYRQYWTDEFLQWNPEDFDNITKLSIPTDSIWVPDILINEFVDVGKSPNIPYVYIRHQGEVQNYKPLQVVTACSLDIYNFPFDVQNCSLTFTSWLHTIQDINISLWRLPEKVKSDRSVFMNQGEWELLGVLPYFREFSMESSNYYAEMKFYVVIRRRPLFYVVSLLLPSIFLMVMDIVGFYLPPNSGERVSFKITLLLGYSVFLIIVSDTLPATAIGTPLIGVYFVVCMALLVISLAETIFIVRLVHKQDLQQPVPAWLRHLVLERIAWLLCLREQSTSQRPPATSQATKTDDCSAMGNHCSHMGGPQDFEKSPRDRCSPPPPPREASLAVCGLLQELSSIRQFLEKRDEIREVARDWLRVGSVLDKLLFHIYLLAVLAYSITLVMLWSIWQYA
Particulars: relative to first-generation 5-HT3 receptor antagonists.

As to `O=C1c2cccc3c2C(CCC3)CN1C1CN2CCC1CC2` (stereo in doubt) [palonosetron, (3aS)-2-[(3S)-1-azabicyclo[2.2.2]oct-3-yl]-2,3,3a,4,5,6-hexahydro-1H-benz[de]isoquinolin-1-one], the half-life in series [1] is at least 40 h. Besides, at 5-HT3 receptor, the “inhibitory effect on delayed vomiting, higher than that of other first-generation 5-HT3 receptor antagonists” value is reported as 10 times.
